US20040120922A1, “Method for promoting bone formation” (Genzyme Corporation, priority 2002, published 2004)

Legend:
Type in all cases: in vivo, human
hemodialysis patients [1] = experiment: Biochemical markers after 12 months of treatment (Example 2); conditions: on average, one treatment group relative to the other
Description: Following the 12 months of treatment, the levels a number of biochemical markers were assayed in the patient groups. […] The group treated with sevelamer had on average higher iPTH, 1-84 PTH, alkaline phosphatase, bone specific alkaline phosphatase, osteocalcin, and HDL cholesterol. The sevelamer group had lower calcium, 25-hydroxyvitamin D, total cholesterol, LDL cholesterol, apolipoprotein B, […] and total CO2.

hemodialysis patients [2] = experiment: Biochemical marker studies, 52 week randomized study in hemodialysis patients; conditions: end of the chronic phase of the study
Description: Protocols 1-7 for use of RenaGel® (Geltex Pharmaceuticals, Inc., Waltham, Mass.) in each of the haemodialysis patient studies are provided in the following references, respectively, the teachings of which are incorporated herein by reference in their entireties.
Chertow, G. M., Burke, S. K., Raggi, P., for the Treat to Goal Working Group, “Sevelamer attenuates the progression of coronary and aortic calcification in hemodialysis patients,” Kidney Int. 62: 245-252 (2002).
Osteocalcin and BSAP are measures of osteoblast function and are indicative of bone formation. […] There were no statistically significant differences between treatment groups in the mean change from Day 0 to Week 52 in c-telopeptides, a collagen fragment which indicates osteoclast function and bone resorption.
The study was a 52 week, randomized, open label, multi-center, parallel study designed to assess the effects of sevelamer compared to calcium acetate/carbonate in enabling hemodialysis patients to reach therapeutic goals of phosphorus <5 mg/dL, calcium <10.5 mg/dL and iPTH in the range of 150-300 pg/mL. Patients also underwent Electron Beam Tomography (EBT) scans at Day 0 and Weeks 26 and 52. These scans were used to assess changes in cardiovascular calcification over time. […]

hemodialysis patients [3] = experiment: Thoracic spine bone density by computerized tomography densitometry, baseline vs 24 month EBT scan (Extension study); conditions: two years, FIG. 1
Description: Prior to the completion and analysis of this protocol, the study was extended for an additional two years. During this extension study, patients would remain on the phosphate binder to which they were originally randomized, sevelamer or calcium acetate/carbonate, and EBT scans would be performed at Month 24 and Month 36, to assess long-term changes in cardiovascular calcification. Forty-five patients in the US and 72 patients in the EU were eligible and consented to participate in the Extension study.
Having met the endpoints of the original study, the Extension study was prematurely discontinued. Only 77 Extension study patients opted to have a final EBT scan performed.
The study's EBT Core Lab evaluated the EBT images of patients who had both a baseline and 24 month scan to assess changes over time in trabecular and cortical bone density. Specifically, thoracic spine bone density was assessed by computerized tomography densitometry (density expressed as Hounsfield units). Trabecular bone density was measured in the core of the lowest vertebral body completely captured by the scanning procedure, while cortical bone density was measured in the axial plate of the same vertebral body. Care was taken to evaluate exactly the same vertebral level in consecutive scans in the same patient. […]

hemodialysis patients [4] = experiment: Bone density, baseline vs 12 month scan (Example 2)
Description: […] Specifically, thoracic spine bone density was assessed by computerized tomography densitometry (density expressed as Hounsfield units). Trabecular bone density was measured in the core of the lowest vertebral body completely captured by the scanning procedure, while cortical bone density was measured in the axial plate of the same vertebral body. Care was taken to evaluate exactly the same vertebral level in consecutive scans in the same patient. No significant differences in demographics, baseline bone density or vascular calcification scores were observed between the sevelamer and calcium groups, with the exception of age, (sevelamer/Renagel group 53±12 yrs, calcium group 59±13 yrs, p=0.02).

hemodialysis patients [5] = experiment: Cardiovascular calcification by Electron Beam Tomography (Agatston score), 52 week study; conditions: Week 0 to 52
Description: The study was a 52 week, randomized, open label, multi-center, parallel study designed to assess the effects of sevelamer compared to calcium acetate/carbonate in enabling hemodialysis patients to reach therapeutic goals of phosphorus <5 mg/dL, calcium <10.5 mg/dL and iPTH in the range of 150-300 pg/mL. Patients also underwent Electron Beam Tomography (EBT) scans at Day 0 and Weeks 26 and 52. These scans were used to assess changes in cardiovascular calcification over time. A total of 202 patients who were on hemodialysis and taking one or more phosphate binders were randomized in a 1:1 design to receive either Renagel® or calcium acetate (United States)/carbonate (Europe), stratified by the presence or absence of diabetes.
Approximately 12 months into the Extension study, the analysis of the initial study was completed. […] This difference was statistically significant (p=0.0398). […] This difference was statistically significant (p=0.0104). When analyzed by percent change and weekly change, the results were consistently in favor of the sevelamer group. Complete results are described in the article referenced as Protocol 7 (Chertow, 2002).

[6] = 12 month treatment period, absolute and percentage change

calcium acetate/carbonate
iPTH (hemodialysis patients [1]): significantly lower
mean increase in BSAP (bone-specific alkaline phosphatase) (hemodialysis patients [2]; p<0.0001 between groups): 6.81 U/L
mean increase in osteocalcin (hemodialysis patients [2]; p=0.0003 between groups): 15.80 ng/mL
change in cortical bone density from baseline (hemodialysis patients [3]): non-significant decrease
change in trabecular bone density from baseline (hemodialysis patients [3]): significant reduction
change in cortical bone density (hemodialysis patients [4]; [6]): trend to reduced
change in trabecular bone density (hemodialysis patients [4]; [6]): significant reduction
magnitude of trabecular bone density loss, mean (hemodialysis patients [4]; 52 weeks): −5%
median change in aortic calcification by Agatston score (hemodialysis patients [5]; p=0.0104 between groups): 75.05
median change in coronary artery calcification by Agatston score (hemodialysis patients [5]; p=0.0398 between groups): 36.55
